Source: patent publication US6541238B1, “Recombinant cellulose synthase” (Board of Regents, The University of Texas Systems, priority 1990, dated 2003)

Key:
[1] = test system: DNA from A. xylinum ATCC 53582 and ATCC 23769; test: DNA-DNA hybridization of 17-mer oligonucleotide probes with HindIII-digested total DNA; type: binding, Acetobacter xylinum; settings: stringent hybridization conditions; HindIII digest
Description: Hybridization of the oligonucleotide probes with A. xylinum DNA was carried out using the eight oligonucleotides that were thus synthesized. […] In order to accomplish these studies, total DNA from A. xylinum ATCC 53582, A. xylinum ATCC 23769, and E. coil HB101 (a common strain of E. coli used in recombinant DNA experiments) was digested with HindIII and the fragments were separated on an agarose gel. After separation, the fragments were transferred by capillary action to a nylon membrane (GeneScreen; NEN Research Products) according to the procedure of Reed and Mann (1985). The DNA thus transferred was next hybridized with the ^32P-labeled oligonucleotide of the invention using standard procedures. Hybridization was accomplished in a solution with 5×SSC [1×SSC: 0.15M NaCl, 0.015M sodium citrate] at 45° C. for 16-24 hours. The filters were then washed with a solution containing reduced salt concentration. In all cases, the hybridization temperature was 5-7° C. below the dissociation temperature as described by Suggs, et al. (1981) applying the formula Td=2(A+T)+4(G+C).

[2] = molecular target: T1, 83 kd polypeptide of cellulose synthase (Komagataeibacter xylinus, UniProt P0CW87); test: Photoaffinity labeling of purified cellulose synthase with [β-32P]5N3UDP-glc; type: binding, Acetobacter xylinum
T1 construct: endogenous in cells; host or cells: Acetobacter xylinum ATCC 53582; membranes solubilized with detergent, enzyme purified by cellulose entrapment
T1 sequence (P0CW87 1-723): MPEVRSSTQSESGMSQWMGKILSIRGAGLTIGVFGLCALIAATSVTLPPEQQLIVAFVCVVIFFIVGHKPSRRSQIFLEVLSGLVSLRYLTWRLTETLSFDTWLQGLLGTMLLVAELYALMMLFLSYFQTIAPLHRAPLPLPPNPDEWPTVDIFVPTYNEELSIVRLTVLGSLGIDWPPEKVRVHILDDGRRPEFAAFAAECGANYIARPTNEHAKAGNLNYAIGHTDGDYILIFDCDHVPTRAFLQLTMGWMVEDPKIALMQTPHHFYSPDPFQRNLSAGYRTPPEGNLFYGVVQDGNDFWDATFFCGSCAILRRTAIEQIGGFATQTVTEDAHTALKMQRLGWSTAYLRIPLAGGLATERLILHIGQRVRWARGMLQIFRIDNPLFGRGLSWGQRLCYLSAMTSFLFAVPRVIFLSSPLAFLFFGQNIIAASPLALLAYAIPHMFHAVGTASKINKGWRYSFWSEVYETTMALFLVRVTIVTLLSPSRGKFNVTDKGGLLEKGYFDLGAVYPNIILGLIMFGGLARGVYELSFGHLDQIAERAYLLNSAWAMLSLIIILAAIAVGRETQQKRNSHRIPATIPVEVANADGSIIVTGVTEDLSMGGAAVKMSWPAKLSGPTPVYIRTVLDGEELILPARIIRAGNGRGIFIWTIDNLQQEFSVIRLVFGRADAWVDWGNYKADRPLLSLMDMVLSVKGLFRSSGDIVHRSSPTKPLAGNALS
T1 sequence (P0CW87 742-1550 partner limits assumed): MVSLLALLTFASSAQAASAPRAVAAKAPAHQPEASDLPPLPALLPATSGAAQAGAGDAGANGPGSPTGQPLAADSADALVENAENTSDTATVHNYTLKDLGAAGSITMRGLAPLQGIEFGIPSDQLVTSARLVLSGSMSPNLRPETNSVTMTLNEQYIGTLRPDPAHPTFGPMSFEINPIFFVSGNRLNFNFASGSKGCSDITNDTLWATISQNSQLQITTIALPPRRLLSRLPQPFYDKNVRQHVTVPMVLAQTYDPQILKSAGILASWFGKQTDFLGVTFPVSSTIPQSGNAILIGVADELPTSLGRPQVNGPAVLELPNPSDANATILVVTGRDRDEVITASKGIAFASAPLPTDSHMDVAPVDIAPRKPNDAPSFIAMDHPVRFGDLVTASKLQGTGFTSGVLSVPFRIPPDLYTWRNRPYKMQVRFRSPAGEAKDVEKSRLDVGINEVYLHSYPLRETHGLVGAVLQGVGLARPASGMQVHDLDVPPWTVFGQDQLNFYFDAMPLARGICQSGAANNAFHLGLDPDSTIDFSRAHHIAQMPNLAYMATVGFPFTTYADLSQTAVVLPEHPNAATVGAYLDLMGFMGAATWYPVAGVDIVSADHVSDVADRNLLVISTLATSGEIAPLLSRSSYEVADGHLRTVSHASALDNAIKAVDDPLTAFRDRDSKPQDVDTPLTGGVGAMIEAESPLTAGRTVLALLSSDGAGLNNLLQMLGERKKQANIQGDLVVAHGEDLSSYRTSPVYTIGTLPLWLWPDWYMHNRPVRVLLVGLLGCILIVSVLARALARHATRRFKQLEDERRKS
Description: In addition to 20 μl of activator for cellulose synthase, each reaction mixture contained 50 mM Tris-HCl, 10 mM MgCl2, 1 mM CaCl2, 1 mM EDTA, the indicated protein quantity of enzyme sample, and 20 μM of [β-^32P]5N3UDP-glc (specific activity, 24 mCi/μmol) in a final reaction volume of 50 μl at pH 8.0-8.5. For competition experiments, the competitor, namely UDP-glc, was added at final concentrations of 0, 50, 100, and 300 μM, respectively. For saturation studies, [B-^32P]5N3UDP-glc was added at final concentrations of 20, 50, 100, 300 and 500 μM, respectively. […] Reactions were terminated by the addition of 0.3 ml of 7% perchloric acid. […] The Coomassie blue stained gel was dried and autoradiographed. Autoradiography was performed at −80° C. with Kodak X-Omat AR film and a Dupont Cronex intensifying screen. The molecular mass standards (Bio-Rad) were phosphorylase b (97kd), bovine serum albumin (66 kd), ovalbumin (45 kd), and carbonic anhydrase (31 kd).
The quantitation of the autoradiographs was measured by grey value discrimination of a digitized image (recorded on a Kontron/Zeiss IBAS Image Processing System).

[3] = molecular target: cellulose synthase of Acetobacter xylinum, Triton X-100-solubilized enzyme preparation (TS) (Acetobacter xylinum ATCC 53582); test: Con A-Sepharose 4B column chromatography of TS; bound enzyme eluted with 0.3 M methyl alpha-D-mannopyranoside
cellulose synthase = molecular target: T2, cellulose synthase (Komagataeibacter xylinus, UniProt P0CW87); test: Cellulose synthase enzyme assay (UDP-[14C]glc into alkali-insoluble material); type: biochemical, Acetobacter xylinum
T2 construct: endogenous in cells; host or cells: Acetobacter xylinum; washed or trypsinized membranes, Triton X-100, n-octyl glucoside or digitonin extracts, entrapment pellets EP1 and EP2
T2 sequence (P0CW87 1-723): T1 sequence (P0CW87 1-723)
T2 sequence (P0CW87 742-1550 partner limits assumed): T1 sequence (P0CW87 742-1550 partner limits assumed)
Description: Enzyme Assay—Assays contained a final volume of […]: 20 μl of 0.5 M Tris-HCl (pH 9.6) containing 50 mM MgCl2 and 5 mM EDTA, 20 μl of 0.1 M MgCl2, 20 μl of 10 MM CaCl2, 25 μl of TME buffer, 25 μl of H2O, 20 μl of crude Gx, and 50 μl of enzyme sample. […] The reaction was stopped with 2 ml of 0.5 M NaOH, and the radioactivity in alkali-insoluble materials was counted after filtration through glass-fiber filters, as described in detail (Bureau and Brown 1987).
Protein Determination—Protein concentrations were determined according to the method of Bradford (1976), using the protein assay kit of Bio-Rad Laboratories. A modification of the Lowry procedure (Markwell 1978) was used only with membrane preparations. In both cases, bovine serum albumin was used as a standard.

**Q.** With 5′-ATGTCICAGTGGATGGG-3′ [83-1G] as the molecule, how does the “hybridization (homology) with A. xylinum DNA” value [1] read?
**A.** Its value is “showed homology with a single HindIII fragment”.

**Q.** [N-]=[N+]=Nc1cn([C@@H]2O[C@H](COP(=O)(O)OP(=O)(O)O[C@H]3O[C@H](CO)[C@@H](O)[C@H](O)[C@H]3O)[C@@H](O)[C@H]2O)c(=O)[nH]c1=O [[β-^32P]5N3UDP-glc] was tested. Which “probe concentration at which saturation of photoinsertion was being obtained” value ([2]; 83 kd protein band) did it give?
**A.** The value was “above 100 μM”.

**Q.** What about the Kd ([2]; probe 20-500 μM, 83 kd polypeptide, read-out: kd value, saturation of cellulose synthase photolabeling) of the same molecule?
**A.** The Kd was 68 µM.

**Q.** Nc1nc2c(ncn2[C@@H]2O[C@@H]3COP(=O)(O)O[C@H]4[C@@H](O)[C@H](n5cnc6c(=O)[nH]c(N)nc65)O[C@@H]4COP(=O)(O)O[C@H]3[C@H]2O)c(=O)[nH]1 [c-di-GMP, bis-(3′,5′)-cyclic diguanylic acid] was tested. Which “increase of photoincorporation into the 83 kd band in the presence of activator” value ([2]; purified preparation, FIG. 8 lane 6 vs lane 5) did it give?
**A.** Its value is 45%.

**Q.** Which total enzyme activity recovered on elution from the Con A-Sepharose column [3] does the source give for “Concanavalin A (Con A) Sepharose 4B (from UniProt P02866 30-281)” here?
**A.** Its total enzyme activity recovered on elution from the Con A-Sepharose column is greater than 90%.

B1: trypsin: trypsin (EC 3.4.21.4), Sigma (protein, UniProt P00760 24-246, looked up)
Serine protease 1: IVGGYTCGANTVPYQVSLNSGYHFCGGSLINSQWVVSAAHCYKSGIQVRLGEDNINVVEGNEQFISASKSIVHPSYNSNTLNNDIMLIKLKSAASLNSRVASISLPTSCASAGTQCLISGWGNTKSSGTSYPDVLKCLKAPILSDSSCKSAYPGQITSNMFCAGYLEGGKDSCQGDSGGPVVCSGKLQGIVSWGSGCAQKNKPGVYTKVCNYVSWIKQTIASN
**Q.** B1 was tested. Which “effect of trypsin on enzyme activity of washed membranes or TS” value (cellulose synthase; 30 minutes at 25° C.) did it give?
**A.** The value was “did not effect enzyme activity”.

**Q.** And the “effect of trypsin on enzyme activity of the EP1 fraction from DS” value (cellulose synthase; 1 hour at 25° C.)?
**A.** The value was “enzyme activity was still maintained”.
